Measurements as given in the SangsterLogP compilation.

What was measured:
[1] = method code SF-AS, from Fulcrand, P.; Berge, G.; Noel, A. (1978). Hydrazides as monoamine oxidase inhibitors. Hansch and Free Wilson correlations. Eur J Med Chem, 13(2)177-182.
[2] = method code SF, from Fulcrand, P.; Berge, G.; Noel, A. (1978). Hydrazides as monoamine oxidase inhibitors. Hansch and Free Wilson correlations. Eur J Med Chem, 13(2)177-182.

Row | Compound | logP [1] | logP [2]
1 | CC(C)NNC(=O)COc1ccccc1 | 1.24 | 
2 | CC(C)NNC(=O)C(C)Oc1cccc(Cl)c1 (centres undefined) | 2.18 | 
3 | CC(NNC(=O)COc1ccccc1)c1ccccc1 (centres undefined) | 2.46 | 
4 | CC(C)NNC(=O)COc1ccc(Cl)cc1 |  | 2.01
5 | Cc1ccc(OCC(=O)NNC(C)C)cc1 | 1.81 | 
6 | CC(C)NNC(=O)COc1ccccc1Cl | 1.82 | 
7 | Cc1cccc(OCC(=O)NNC(C)C)c1 | 1.77 | 
8 | COc1ccccc1OCC(=O)NNC(C)C | 1.11 | 
9 | CC(C)NNC(=O)C(C)Oc1ccccc1Cl (centres undefined) | 2 | 
10 | COc1cccc(OCC(=O)NNC(C)C)c1 | 1.33 | 
11 | CC(C)NNC(=O)C(C)Oc1ccc(Cl)cc1 (centres undefined) | 2.14 | 
12 | Cc1cccc(OC(C)C(=O)NNC(C)C)c1 (centres undefined) | 1.88 | 
13 | COc1ccc(OCC(=O)NNC(C)C)cc1 | 1.21 | 
14 | Cc1ccccc1OCC(=O)NNC(C)C | 1.83 | 
15 | Cc1ccc(OCC(=O)NNC(C)c2ccccc2)cc1 (centres undefined) | 2.87 | 
16 | CC(C)NNC(=O)COc1cccc(Cl)c1 | 1.91 | 
17 | O=C(COc1ccc(Cl)cc1)NNCc1ccccc1 | 2.92 | 
18 | COc1ccc(OCC(=O)NNC(C)c2ccccc2)cc1 (centres undefined) | 2.39 | 
19 | CCNNC(=O)COc1ccc(Cl)cc1 | 1.73 | 
20 | O=C(COc1ccccc1)NNCc1ccccc1 | 2.16 | 
21 | CC(C)NNC(=O)C(C)Oc1ccccc1 (centres undefined) | 1.39 | 
22 | CCNNC(=O)COc1ccccc1 | 1 | 
23 | CC(C)NNC(=O)C(C)(C)Oc1ccccc1 | 1.88 | 
24 | CC(C)NNC(=O)C(C)(C)Oc1ccc(Cl)cc1 | 2.56 | 
